Experimental findings from US3981868A are described below.

SMILES strings stand for the structures. Values after ≈ are worked out from the molar mass of the structure shown.

One test relates to diastolic blood pressure. Kind of test: hypotensive activity in anesthetized rats (minimal dose lowering diastolic blood pressure about 10 mm.). The test is classed as in vivo, Male Wistar strain rats. As to conditions: Rattus norvegicus; intravenous; dose producing a decrease of about 10 mm. in diastolic blood pressure. On the procedure:
This procedure is a modification of the technique described by Pike et al., Prostaglandins, Nobel Symposium 2, Stockholm, June, 1966; p. 165.
Male Wistar strain rats (Royal Hart Farms) averaging approximately 250 grams in weight were fastened to rat boards in a supine position by means of canvas vests and limb ties. The femoral area was infiltrated subcutaneously with lidocaine and the iliac artery and vein were exposed and cannulated. Arterial blood pressure (systolic/diastolic) was recorded using a Statham P23 Db pressure transducer-Offner dynograph system. To obtain a stable blood pressure, the animals were anesthetized before use with pentobarbital, 30 mg./kg. of body weight intravenously, and also were given hexamethonium bitartrate, 2 mg./kg., of body weight intravenously. The test compounds were prepared by ultrasonic dispersion in a saline-Tween 80 vehicle. A constant intravenous dose volume of 0.5 ml. was administered and test doses ranged from 0.1 to 10.0 mg./kg. of body weight. Increasing or decreasing doses were selected depending on the dose response obtained. In Table I below are set forth the minimal doses required to produce a decrease of about 10 mm. in diastolic blood pressure for typical compounds of the present invention.
The term minimal effective dose denotes the lowest level tested that produced the effect sought. High values mean a need for much substance, low ones an effect from little substance. Compound `CCCCCC/C=C/[C@H]1CCC(=O)[C@@H]1CCCCCCC(=O)N1CCN(C)CC1` (relative stereo) registered a minimal effective dose of 4 mg/kg.

For the compound `CCCCCC/C=C/[C@H]1CCC(=O)[C@@H]1CCCCCCC(=O)N1CCN(c2ccccc2)CC1` (relative stereo), the minimal effective dose was determined as 8 mg/kg.

Consider `CCCCCC/C=C/[C@H]1CCC(=O)[C@@H]1CCCCCCC(=O)NO` (relative stereo), for which the minimal effective dose amounted to 2 mg/kg.

In another test the test system is Microsporum canis ATCC 10214. Kind of test: agar-dilution streak-plate antifungal assay (1). The settings on record: ATCC10214, read-out: Minimal inhibitory conc. The test is classed as cell-based. How it is done:
(§1) The novel compounds of the present invention are also useful as antimicrobial agents. […] In this assay, the compounds to be tested are made up to contain 2.5 mg. of test compound per milliliter of solution. Observing sterile techniques, two-fold serial dilutions are made of each test solution. One milliliter of each of the original solutions and of each of the serial dilutions is then added to 9 ml. of warm sterile nutrient agar capable of supporting growth of the bacterial test cultures. A second set of agar dilutions is prepared identical to the first except that the nutrient agar is designed to support the growth of the fungal test cultures. […] The test bacteria and yeast-like fungi are prepared for use by growing in broth overnight. The spores of the filamentous fungi are harvested from mature agar slant cultures and are suspended in sterile physiological saline solution. A loopful of each of the resulting live suspensions is then, still employing sterile techniques, streaked upon the surfaces of each of the agar plates and the resulting streaked plates are then incubated. After an appropriate period of time, each of the streaks on each of the plates is inspected visually and the extent, if any, of bacterial or fungal growth is noted. The minimal inhibitory concentration (expressed in micrograms per milliliter) is defined as the concentration of test compound causing complete inhibition of growth of any particular organism. In a representative operation, and merely by way of illustration, the minimal inhibitory concentration of typical compounds of the present invention against a variety of test organisms as determined in the above-described assay are set forth in Tables II and III below: […]
As for `CCCCCC/C=C/[C@H]1CCC(=O)[C@@H]1CCCCCCC(=O)N1CCN(C)CC1` (relative stereo), the MIC was determined as 25 µg/mL (≈ 61.8 µM).

For `CCCCCC/C=C/[C@H]1CCC(=O)[C@@H]1CCCCCCC(=O)NO` (relative stereo), the MIC came to 250 µg/mL (≈ 741 µM).

The test system of a further test is Microsporum gypseum ATCC 14683. The experiment in a line: agar-dilution streak-plate antifungal assay (2). In kind it is cell-based. The settings on record: Nannizzia gypsea, ATCC14683, read-out: Minimal inhibitory conc. How it is done: as §1
Consider `CCCCCC/C=C/[C@H]1CCC(=O)[C@@H]1CCCCCCC(=O)N1CCN(C)CC1` (relative stereo), for which the MIC stood at 25 µg/mL (≈ 61.8 µM).

On to `CCCCCC/C=C/[C@H]1CCC(=O)[C@@H]1CCCCCCC(=O)NO` (relative stereo), for which the MIC was 250 µg/mL (≈ 741 µM).

The next test concerns Trichophyton tonsurans NIH 662. The experiment in a line: agar-dilution streak-plate antifungal assay (3). The test is classed as cell-based. The settings on record: NIH662, read-out: Minimal inhibitory conc. How it is done: as §1
With `CCCCCC/C=C/[C@H]1CCC(=O)[C@@H]1CCCCCCC(=O)N1CCN(C)CC1` (relative stereo), the MIC is 25 µg/mL (≈ 61.8 µM).

As for `CCCCCC/C=C/[C@H]1CCC(=O)[C@@H]1CCCCCCC(=O)NO` (relative stereo), the MIC worked out at 250 µg/mL (≈ 741 µM).

For a further test, the system named is Trichophyton mentagrophytes E 11?
The experiment in a line: agar-dilution streak-plate antifungal assay (4). In kind it is cell-based. As to conditions: read-out: Minimal inhibitory conc. How it is done:
as §1
As for `CCCCCC/C=C/[C@H]1CCC(=O)[C@@H]1CCCCCCC(=O)N1CCN(C)CC1` (relative stereo), the MIC came out at 10 µg/mL (≈ 24.7 µM).

Consider `CCCCCC/C=C/[C@H]1CCC(=O)[C@@H]1CCCCCCC(=O)NO` (relative stereo), for which the MIC was determined as 250 µg/mL (≈ 741 µM).

A further test deals with Trichophyton rubrum E 97. The experiment in a line: agar-dilution streak-plate antifungal assay (5). The settings on record: E97, read-out: Minimal inhibitory conc. In kind it is cell-based. On the procedure:
as §1
With `CCCCCC/C=C/[C@H]1CCC(=O)[C@@H]1CCCCCCC(=O)N1CCN(C)CC1` (relative stereo), the MIC is 25 µg/mL (≈ 61.8 µM).

In the case of `CCCCCC/C=C/[C@H]1CCC(=O)[C@@H]1CCCCCCC(=O)NO` (relative stereo), the MIC is 250 µg/mL (≈ 741 µM).

The next test has as its system Mycobacterium smegmatis ATCC 606. The experiment in a line: agar-dilution streak-plate antibacterial assay (6). In kind it is cell-based. The settings on record: Mycolicibacterium smegmatis, ATCC606, read-out: Minimal inhibitory conc. On the procedure:
as §1
Regarding `CCCCCC/C=C/[C@H]1CCC(=O)[C@@H]1CCCCCCC(=O)N1CCN(C)CC1` (relative stereo), the MIC was 10 µg/mL (≈ 24.7 µM).

On to `CCCCCC/C=C/[C@H]1CCC(=O)[C@@H]1CCCCCCC(=O)NO` (relative stereo), for which the MIC was found to be 250 µg/mL (≈ 741 µM).

The next test relates to Staphylococcus aureus Rose ATCC 14154. Kind of test: agar-dilution streak-plate antibacterial assay (7). The test is classed as cell-based. As to conditions: ATCC14154, read-out: Minimal inhibitory conc. How it is done:
as §1
Turning to `CCCCCC/C=C/[C@H]1CCC(=O)[C@@H]1CCCCCCC(=O)N1CCN(C)CC1` (relative stereo), the MIC was 25 µg/mL (≈ 61.8 µM).

For the compound `CCCCCC/C=C/[C@H]1CCC(=O)[C@@H]1CCCCCCC(=O)NO` (relative stereo), the MIC was found to be 250 µg/mL (≈ 741 µM).

The next test relates to Streptococcus pyogenes C 203. The experiment in a line: agar-dilution streak-plate antibacterial assay (8). The test is classed as cell-based. The settings on record: C203, read-out: Minimal inhibitory conc. How it is done:
as §1
As to `CCCCCC/C=C/[C@H]1CCC(=O)[C@@H]1CCCCCCC(=O)N1CCN(C)CC1` (relative stereo), the MIC was 10 µg/mL (≈ 24.7 µM).

On to `CCCCCC/C=C/[C@H]1CCC(=O)[C@@H]1CCCCCCC(=O)NO` (relative stereo), for which the MIC amounted to 250 µg/mL (≈ 741 µM).

The next test relates to gastric acid secretion. Kind of test: inhibition of gastric acid secretion (pylorus-ligated rat, Shay rat). In kind it is in vivo, rats (male, CFE strain). As to conditions: intraduodenal dose 100 mg./kg. body weight, 3 hours, 20% or more considered active. How it is done: The novel compounds of the present invention are also effective inhibitors of gastric acid secretion and of ulcer development in experimental animals, and thus are potentially valuable as agents for the control of gastric acid secretion and of gastric erosion and as anti-ulcer agents. Gastric acid secretion inhibitory action is usually measured by the "Shay rat" procedure ^(1,2) with some modifications as follows.
The rats (male, CFE strain) were starved for 48 hours (water was given ad libitum) to permit evacuation of stomach contents. On the morning of the experiment, under ether anesthesia, the abdominal region was shaved and a midline incision (1-11/2 inches) was made with a scalpel. With the help of a closed curved hemostat the duodenum was picked up. Upon getting the duodenum into view fingers were used to pull the stomach through the opening, the stomach was then gently manipulated with fingers to rid the stomach of air and residual matter which were pushed through the pylorus. Two 5-inch sutures were drawn under the pyloric-duodenal juncture. A ligature, at the juncture, was formed with one of the threads. The second ligature was also formed by not tightened.
The test compound or the vehicle, usually 1 ml./100 g. body weight, were injected into the duodenum as close as possible to the first ligature. After injection the second ligature was tightened below the injection site to minimize leakage. The stomach was placed back through the opening into the abdominal cavity, the area of incision was washed with saline and the incision was closed with autoclips. (Ocasionally, instead of an intraduodenal injection, animals were dosed by the oral or subcutaneous route. In the latter case, dosing was done thirty to sixty minutes before the operation).
The abdominal cavity was exposed by cutting with scissors and the esophagus close to the stomach was clamped off with a hemostat, the stomach was removed by cutting above the hemostat (the espohagus was cut) and between the two sutures. Extraneous tissue was removed, the stomach washed with saline and blotted on gauze. A slit was carefully made in the stomach which was held over a funnel and the contents were collected in a centrifuge tube. The stomach was further cut along the outside edge and turned inside out. Two ml. of water were used to wash the stomach contents into the respective centrifuge tube. The combined stomach contents and wash were then centrifuged out for 10 minutes in the International Size 2 Centrifuge (setting at 30). The supernatant was collected, volume measured and recorded, 2 drops of phenolphthalein indicator (1% in 95% ethanol) were added and the solution was titrated with 0.02N NaOH (or with 0.04N NaOH when large volumes of stomach contents were encountered) to pH 8.4 (because of usual coloring of the stomach contents, phenolphthalein was only used to permit visual indication that the end point was near) and the amount of acid present was calculated.
Compounds inducing inhibition of gastric acid secretion of 20% or more were considered active. In a representative operation, and merely by way of illustration, the results obtained with this assay with typical compounds of the present invention are given in Table IIIA.
In the case of `CCCCCC/C=C/[C@H]1CCC(=O)[C@@H]1CCCCCCC(=O)N1CCN(C)CC1` (relative stereo), the “Percent Inhibition of gastric acid secretion” value is listed as 36%.

Turning to `CCCCCC/C=C/[C@H]1CCC(=O)[C@@H]1CCCCCCC(=O)NO` (relative stereo), the “Percent Inhibition of gastric acid secretion” value is reported as 38%.

The test system of another test is dl-PGE1-induced contraction of gerbil colon. The experiment in a line: inhibition of dl-PGE1-induced contraction of gerbil colon. The settings on record: maximal challenge, 200 ng./ml. dl-PGE1; approximate.
Procedure: Testing for prostaglandin antagonist action is carried out in the following manner.
Sections of ascending colon, approximately 20 mm. long, from mature male gerbils (Meriones unguiculatus) weighing 70-80 g. were mounted in DeJalon's solution (154 mM NaCl; 5.95 mM NAHCO3 ; 278 mM glucose, 5.64 mM KCl and .27 mM Cacl2 in 20 ml. tissue baths) (L. and K Glass Co., Lynnhurst, N.J.). The medium was continually gassed with a mixture of 95% 02 -5% CO2 and maintained at 37°C. The tissues were suspended via silk suture threads between a glass hook at the base and a model FT .03C force displacement transducer (Grass Instrument, Quincy, Mass.).
After mounting, tissues were allowed to stabilize 15-20 minutes during which time adjustments were made to establish and maintain a 0.5 g. resting tension on the muscle. Thereafter, test cycles of 3-5 minutes were begun and consisted of a 1 minute exposure to the potential antagonist, if called for, followed by a 1 minute exposure to the prostaglandin agonist, a 15-30 sec. washout and a recovery period of 2-2.5 minutes. […] During the washout period, the tissue was rinsed with a measured amount equalling 8 volumes of medium. Muscle relaxation was virtually complete by the end of the washout period.
Following stabilization, muscles were exposed 2 to 3 times to this concentration of dl-PGE1 until a consistent response was recorded. Once maximal responses are established, test cycles with potential antagonists were commenced and were followed alternatively with prostaglandin-only test cycle. […] The contraction of the muscle induced by 200 ng./ml. dl-PGE1 following exposure to a given concentration of the potential antagonist was always compared to the response of the tissue to that level of dl-PGE1 in the immediately preceding cycle. Using a series of potential antagonist concentrations, an approximate ID50 (concentration at which 50% inhibition was observed) was established.
Take `CCCCCC/C=C/[C@H]1CCC(=O)[C@@H]1CCCCCCC(=O)NO` (relative stereo): the “ID50 vs. 200 ng. of PGE1 ml.” value is 12 µg/mL.
